We go through 30 molecules from patent US12378224B2 (Dong-A Socio Holdings Co., Ltd., priority 2016, dated 2025).

Molecules are shown by their SMILES. Bounds are passed on as bounds.

As a reminder, the IC50 is the concentration needed to halve the response being measured.

The target of this assay is human MER (528-end) (Homo sapiens (Human), UniProt Q12866). The assay is described as follows: HTRF Kinase Activity Biochemical Assay (KinEASE-TK). Conditions: 10 uM ATP. In outline: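 Activity read-out is the HTRF ratio (665 nm over 620 nm emission, ×10,000; excitation 340 nm) after 1 h detection with 0.375 nM Eu3+-cryptate anti-TK antibody plus 0.062 uM SA-XL665. Preceding kinase step: human MER (528-end), biotinylated TK substrate, 1 h, room temperature.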
human MER (528-end), sequence (Q12866 528-999 limits assumed): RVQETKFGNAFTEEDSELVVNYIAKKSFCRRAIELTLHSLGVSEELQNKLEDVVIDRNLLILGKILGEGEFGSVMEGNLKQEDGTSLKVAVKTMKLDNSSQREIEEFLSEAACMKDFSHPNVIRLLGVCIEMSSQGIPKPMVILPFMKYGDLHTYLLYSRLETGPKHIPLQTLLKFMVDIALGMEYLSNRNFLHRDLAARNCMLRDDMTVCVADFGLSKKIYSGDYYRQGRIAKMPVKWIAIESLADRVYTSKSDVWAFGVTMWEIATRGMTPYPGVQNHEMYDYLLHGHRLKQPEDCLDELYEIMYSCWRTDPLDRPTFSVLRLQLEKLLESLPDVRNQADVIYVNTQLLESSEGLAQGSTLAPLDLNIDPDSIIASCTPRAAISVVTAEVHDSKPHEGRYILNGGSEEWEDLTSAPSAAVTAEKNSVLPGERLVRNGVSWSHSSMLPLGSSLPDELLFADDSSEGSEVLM
In general terms: TR-FRET usually uses a lanthanide donor and a delayed reading to cut background.
On to `CN1CCC(n2cc(-c3cnc(N)c(C(=O)N[C@@H]4CCN(C(=O)Oc5ccccc5)C4)c3)cn2)CC1` [Example 119, phenyl (R)-3-(2-amino-5-(1-(1-methylpiperidin-4-yl)-1H-pyrazol-4-yl)nicotinamido)pyrrolidine-1-carboxylate], for which the IC50 is over 1000 nM.
To `Cn1cc(-c2cnc(N)c(C(=O)N[C@@H]3CCN(C(=O)c4ccc(-c5ccccc5Cl)nc4)C3)c2)cn1` [Example 397, (R)-2-amino-N-(1-(6-(2-chlorophenyl)nicotinoyl)pyrrolidin-3-yl)-5-(1-methyl-1H-pyrazol-4-yl)nicotinamide] belongs 100 to 1000 nM.
The result for `Cn1cc(-c2cnc(N)c(C(=O)N[C@@H]3CCN(C(=O)c4ccc(-c5ccc(Cl)c(Cl)c5)cc4)C3)c2)cn1` [Example 362, (R)-2-amino-N-(1-(3′,4′-dichloro-[1,1′-biphenyl]-4-carbonyl)pyrrolidin-3-yl)-5-(1-methyl-1H-pyrazol-4-yl)nicotinamide] reads 100 to 1000 nM; that for `Cn1cc(-c2cnc(N)c(C(=O)N[C@@H]3CCN(C(=O)c4cccc(-c5cccc(Cn6cccn6)c5)c4)C3)c2)cn1` [Example 459, (R)—N-(1-(3′-((1H-pyrazol-1-yl)methyl)-[1,1′-biphenyl]-3-carbonyl)pyrrolidin-3-yl)-2-amino-5-(1-methyl-1H-pyrazol-4-yl)nicotinamide], over 1000 nM; that for `Cn1cc(-c2cnc(N)c(C(=O)N[C@@H]3CCN(C(=O)c4ccc5ccccc5c4)C3)c2)cn1` [Example 405, (R)—N-(1-(2-naphthoyl)pyrrolidin-3-yl)-2-amino-5-(1-methyl-1H-pyrazol-4-yl)nicotinamide], 100 to 1000 nM.
Take `Nc1ncc(-c2cnn(C3CCNCC3)c2)cc1C(=O)N[C@@H]1CCN(Cc2ccc(F)c(Cl)c2)C1` [Example 158, (R)-2-amino-N-(1-(3-chloro-4-fluorobenzyl)pyrrolidin-3-yl)-5-(1-(piperidin-4-yl)-1H-pyrazol-4-yl)nicotinamide]: the IC50 is 100 to 1000 nM.
The result for `Cn1cc(-c2cnc(N)c(C(=O)N[C@@H]3CCN(C(=O)c4ccc(-c5ccc(F)nc5)cc4)C3)c2)cn1` [Example 357, (R)-2-amino-N-(1-(4-(6-fluoropyridin-3-yl)benzoyl)pyrrolidin-3-yl)-5-(1-methyl-1H-pyrazol-4-yl)nicotinamide] reads over 1000 nM.
The result for `Cc1cc(C(=O)N2CC[C@@H](NC(=O)c3cc(-c4cnn(C)c4)cnc3N)C2)ccc1-c1ccccc1` [Example 399, (R)-2-amino-5-(1-methyl-1H-pyrazol-4-yl)-N-(1-(2-methyl-[1,1′-biphenyl]-4-carbonyl)pyrrolidin-3-yl)nicotinamide] reads 100 to 1000 nM; that for `Nc1ncc(-c2ccc(S(N)(=O)=O)cc2)cc1C(=O)N[C@@H]1CCN(C(=O)c2ccc(-c3ccccc3Cl)cc2)C1` [Example 575, (R)-2-amino-N-(1-(2′-chloro-[1,1′-biphenyl]-4-carbonyl)pyrrolidin-3-yl)-5-(4-sulfamoylphenyl)nicotinamide], 10 to 100 nM.
In turn, `Nc1ncc(-c2cnn(C3CCNCC3)c2)cc1C(=O)N[C@@H]1CCN(C(=O)Nc2cc(Cl)cc(Cl)c2)C1` [Example 146, (R)-2-amino-N-(1-((3,5-dichlorophenyl)carbamoyl)pyrrolidin-3-yl)-5-(1-(piperidin-4-yl)-1H-pyrazol-4-yl)nicotinamide] registered a concentration for half-maximal inhibition (IC50) of 10 to 100 nM.
`Cn1cc(-c2cnc(N)c(C(=O)N[C@@H]3CCN(c4ncc5ccccc5n4)C3)c2)cn1` [Example 137, (R)-2-amino-5-(1-methyl-1H-pyrazol-4-yl)-N-(1-(quinazolin-2-yl)pyrrolidin-3-yl)nicotinamide]: the IC50 was over 1000 nM.
To `Cn1cc(-c2cnc(N)c(C(=O)N[C@@H]3CCN(C(=O)c4ccc(Oc5ccccc5)cc4)C3)c2)cn1` [Example 731, (R)-2-amino-5-(1-methyl-1H-pyrazol-4-yl)-N-(1-(4-phenoxybenzoyl)pyrrolidin-3-yl)nicotinamide] belongs 100 to 1000 nM; to `Cc1nc(C)c(CN2CC[C@@H](NC(=O)c3cc(-c4cnn(C5CCNCC5)c4)cnc3N)C2)s1` [Example 163, (R)-2-amino-N-(1-((2,4-dimethylthiazol-5-yl)methyl)pyrrolidin-3-yl)-5-(1-(piperidin-4-yl)-1H-pyrazol-4-yl)nicotinamide], over 1000 nM; to `COC(=O)[C@@H]1C[C@H](NC(=O)c2cc(-c3cnn(C)c3)cnc2N)CN1C(=O)c1ccc(-c2ccccc2)cc1` [Example 685, methyl (2S,4S)-1-([1,1′-biphenyl]-4-carbonyl)-4-(2-amino-5-(1-methyl-1H-pyrazol-4-yl)nicotinamido)pyrrolidine-2-carboxylate], over 1000 nM.
The result for `COC(=O)c1ccc(OC)cc1OC(=O)N1CC[C@@H](NC(=O)c2cc(-c3cnn(C)c3)cnc2N)C1` [Example 65, 5-methoxy-2-(methoxycarbonyl)phenyl (R)-3-(2-amino-5-(1-methyl-1H-pyrazol-4-yl)nicotinamido)pyrrolidine-1-carboxylate] reads over 1000 nM; that for `Cn1cc(-c2cnc(N)c(C(=O)N[C@@H]3CCN(C(=O)Oc4ccc5ccc(OCCO)cc5c4)C3)c2)cn1` [Example 299, 7-(2-hydroxyethoxy)naphthalen-2-yl (R)-3-(2-amino-5-(1-methyl-1H-pyrazol-4-yl)nicotinamido)pyrrolidine-1-carboxylate], 100 to 1000 nM.
To `Cn1cc(-c2cnc(N)c(C(=O)N[C@@H]3CCN(Cc4cc(Cl)cc(Cl)c4)C3)c2)cn1` [Example 224, (R)-2-amino-N-(1-(3,5-dichlorobenzyl)pyrrolidin-3-yl)-5-(1-methyl-1H-pyrazol-4-yl)nicotinamide] belongs over 1000 nM.
Regarding `CC(C)c1ccc(CN2CC[C@@H](NC(=O)c3cc(-c4cnn(C)c4)cnc3N)C2)cc1` [Example 212, (R)-2-amino-N-(1-(4-isopropylbenzyl)pyrrolidin-3-yl)-5-(1-methyl-1H-pyrazol-4-yl)nicotinamide], the IC50 is over 1000 nM.
With `Cn1cc(-c2cnc(N)c(C(=O)N[C@@H]3CCN(C(=O)c4ccc(/C=C/c5ccncc5)cc4)C3)c2)cn1` [Example 824, (R,E)-2-amino-5-(1-methyl-1H-pyrazol-4-yl)—N-(1-(4-(2-(pyridin-4-yl)vinyl)benzoyl)pyrrolidin-3-yl)nicotinamide], the IC50 is 100 to 1000 nM.
As to `CN1CC[C@@H](NCc2ccc(-c3cccc(OC(=O)N4CC[C@@H](NC(=O)c5cc(-c6cnn(C)c6)cnc5N)C4)c3)cc2)C1` [Example 310, 4′-((((R)-1-methylpyrrolidin-3-yl)amino)methyl)-[1,1′-biphenyl]-3-yl (R)-3-(2-amino-5-(1-methyl-1H-pyrazol-4-yl)nicotinamido)pyrrolidine-1-carboxylate], the IC50 lay within 100 to 1000 nM.
To `Cn1cc(-c2cnc(N)c(C(=O)N[C@@H]3CCN(C(=O)/C=C/c4ccc(CN5CCN(CCO)CC5)cc4)C3)c2)cn1` [Example 430, (R,E)-2-amino-N-(1-(3-(4-((4-(2-hydroxyethyl)piperazin-1-yl)methyl)phenyl)acryloyl)pyrrolidin-3-yl)-5-(1-methyl-1H-pyrazol-4-yl)nicotinamide] belongs over 1000 nM.
Consider `Cn1cc(-c2cnc(N)c(C(=O)N[C@@H]3CCN(C(=O)c4ccccc4)C3)c2)cn1` [Example 438, (R)-2-amino-N-(1-benzoylpyrrolidin-3-yl)-5-(1-methyl-1H-pyrazol-4-yl)nicotinamide], for which the IC50 is over 1000 nM.
`Cn1cc(-c2cnc(N)c(C(=O)N[C@@H]3CCN(C(=O)c4ccc(-c5ccc(C(=O)N6CCNCC6)cc5)cc4)C3)c2)cn1` [Example 467, (R)-2-amino-5-(1-methyl-1H-pyrazol-4-yl)-N-(1-(4′-(piperazine-1-carbonyl)-[1,1′-biphenyl]-4-carbonyl)pyrrolidin-3-yl)nicotinamide] returned an IC50 of over 1000 nM.
To `Cn1cc(-c2cnc(N)c(C(=O)N[C@@H]3CCN(C(=S)Nc4ccc(F)cc4)C3)c2)cn1` [Example 42, (R)-2-amino-N-(1-((4-fluorophenyl)carbamothioyl)pyrrolidin-3-yl)-5-(1-methyl-1H-pyrazol-4-yl)nicotinamide] belongs over 1000 nM; to `Cn1cc(-c2cnc(N)c(C(=O)N[C@@H]3CCN(C(=O)Oc4ccccc4OCc4ccccc4)C3)c2)cn1` [Example 58, 2-(benzyloxy)phenyl (R)-3-(2-amino-5-(1-methyl-1H-pyrazol-4-yl)nicotinamido)pyrrolidine-1-carboxylate], over 1000 nM.
With `Cn1cc(-c2cnc(N)c(C(=O)N[C@@H]3CCN(C(=O)c4ccc(-c5ccccc5Cl)cn4)C3)c2)cn1` [Example 395, (R)-2-amino-N-(1-(5-(2-chlorophenyl)picolinoyl)pyrrolidin-3-yl)-5-(1-methyl-1H-pyrazol-4-yl)nicotinamide], the IC50 was in the range of 100 to 1000 nM.
To `Cn1cc(-c2cnc(N)c(C(=O)N[C@@H]3CCN(C(=O)Oc4cccc(-c5cncc6ccccc56)c4)C3)c2)cn1` [Example 289, 3-(isoquinolin-4-yl)phenyl (R)-3-(2-amino-5-(1-methyl-1H-pyrazol-4-yl)nicotinamido)pyrrolidine-1-carboxylate] belongs 10 to 100 nM; to `COc1ccc(CN2CC[C@@H](NC(=O)c3cc(-c4cnn(C)c4)cnc3N)C2)c(OC)c1` [Example 220, (R)-2-amino-N-(1-(2,4-dimethoxybenzyl)pyrrolidin-3-yl)-5-(1-methyl-1H-pyrazol-4-yl)nicotinamide], over 1000 nM; to `Cn1cc(-c2cnc(N)c(C(=O)N[C@@H]3CCN(C(=O)c4cc5cc(-c6ccccc6)ccc5o4)C3)c2)cn1` [Example 512, (R)-2-amino-5-(1-methyl-1H-pyrazol-4-yl)-N-(1-(5-phenylbenzofuran-2-carbonyl)pyrrolidin-3-yl)nicotinamide], over 1000 nM.
With `CN1CCC(COc2ccc(-c3ccc(C(=O)N4CC[C@@H](NC(=O)c5cc(-c6cnn(C)c6)cnc5N)C4)cc3)cc2)CC1` [Example 552, (R)-2-amino-5-(1-methyl-1H-pyrazol-4-yl)-N-(1-(4′-((1-methylpiperidin-4-yl)methoxy)-[1,1′-biphenyl]-4-carbonyl)pyrrolidin-3-yl)nicotinamide], the IC50 was 100 to 1000 nM.
